Results published in patent US10253027B2, “Aryl lactam kinase inhibitors” (Bristol-Myers Squibb Company, priority 2013, dated 2019).

biological target: T1, GST-Xa-hAAK1 (Homo sapiens, UniProt Q2M2I8); experiment: AAK1 Kinase Assay; type: biochemical; settings: IC50 (nM), ATP 22 μM; 3 hours at room temperature; Caliper LabChip 3000
T1 construct: made in house
Description: The assays were performed in U-bottom 384-well plates. […] The reactions were initiated by the combination of bacterially expressed, GST-Xa-hAAK1 with substrates and test compounds. The reactions were incubated at room temperature for 3 hours and terminated by adding 60 μl of 35 mM EDTA buffer to each sample. The reactions were analyzed on the Caliper LabChip 3000 (Caliper, Hopkinton, Mass.) by electrophoretic separation of the fluorescent substrate and phosphorylated product. […] Compounds were dissolved at 10 mM in dimethylsulfoxide (DMSO) and evaluated at eleven concentrations. IC50 values were derived by non-linear regression analysis.

T1 sequence (Q2M2I8 whole entry): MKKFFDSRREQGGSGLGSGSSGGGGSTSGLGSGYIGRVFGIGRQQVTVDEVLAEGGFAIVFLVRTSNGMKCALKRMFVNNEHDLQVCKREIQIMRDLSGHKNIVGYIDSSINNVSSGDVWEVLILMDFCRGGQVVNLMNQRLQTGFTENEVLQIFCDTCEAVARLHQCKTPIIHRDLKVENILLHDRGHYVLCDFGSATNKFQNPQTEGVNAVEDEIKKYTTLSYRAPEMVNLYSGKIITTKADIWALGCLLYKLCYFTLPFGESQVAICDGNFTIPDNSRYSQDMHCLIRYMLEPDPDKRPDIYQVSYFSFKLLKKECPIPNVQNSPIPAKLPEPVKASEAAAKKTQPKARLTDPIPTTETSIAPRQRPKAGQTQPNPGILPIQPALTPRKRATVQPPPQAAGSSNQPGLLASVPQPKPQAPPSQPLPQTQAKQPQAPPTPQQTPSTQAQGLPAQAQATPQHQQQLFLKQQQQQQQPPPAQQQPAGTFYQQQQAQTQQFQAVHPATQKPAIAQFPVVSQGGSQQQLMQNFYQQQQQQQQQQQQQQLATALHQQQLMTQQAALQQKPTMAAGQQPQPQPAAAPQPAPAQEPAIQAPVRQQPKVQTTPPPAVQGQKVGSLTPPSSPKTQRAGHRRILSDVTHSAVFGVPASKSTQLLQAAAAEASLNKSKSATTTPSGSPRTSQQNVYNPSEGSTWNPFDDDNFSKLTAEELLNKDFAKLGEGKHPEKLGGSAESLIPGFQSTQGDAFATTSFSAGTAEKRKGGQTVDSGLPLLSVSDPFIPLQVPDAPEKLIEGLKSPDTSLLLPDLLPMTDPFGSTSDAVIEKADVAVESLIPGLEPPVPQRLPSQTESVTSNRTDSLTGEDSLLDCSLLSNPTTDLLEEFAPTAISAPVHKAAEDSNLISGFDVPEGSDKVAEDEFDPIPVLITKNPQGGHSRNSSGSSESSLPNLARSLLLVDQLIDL

Compound | IC50 [nM]
COc1cc(NC(=O)C(N)C2CCCCC2C)ccc1-c1cnco1 (mixture of isomers) [Example 93, 2-Amino-N-(3-methoxy-4-(oxazol-5-yl)phenyl)-2-(2-methylcyclohexyl)acetamide] | 20
CC(C)C1CCCNC1C(=O)Nc1ccc(-c2ccncc2)cc1 (mixture of isomers) [Example 119, 3-Isopropyl-N-(4-(pyridin-4-yl)phenyl)piperidine-2-carboxamide] | 33
O=C(Nc1ccc(-c2ccncc2)cc1)C1NCCCC1C(F)(F)F (mixture of isomers) [Example 120, N-(4-(Pyridin-4-yl)phenyl)-3-(trifluoromethyl)piperidine-2-carboxamide] | 220
CC1CCCCC1C(N)C(=O)Nc1ccc(-c2ccncc2)cc1 (mixture of isomers) [Example 121, 2-Amino-2-(2-methylcyclohexyl)-N-(4-(pyridin-4-yl)phenyl)acetamide] | 140
NC(C(=O)Nc1ccc(-c2ccncc2)cc1)C1CCCCC1C(F)(F)F (mixture of isomers) [Example 122, 2-Amino-N-(4-(pyridin-4-yl)phenyl)-2-(2-(trifluoromethyl)cyclohexyl)acetamide] | 64
COc1cc(NC(=O)C2NCCC2C(C)C)ccc1-c1cnco1 (single isomer, unassigned) [Example 36, 3-Isopropyl-N-(3-methoxy-4-(oxazol-5-yl)phenyl)pyrrolidine-2-carboxamide] | 48
COc1cc(NC(=O)C2NCCC2C(C)C)ccc1-c1cnco1 (single isomer, unassigned) [Example 37, 3-Isopropyl-N-(3-methoxy-4-(oxazol-5-yl)phenyl)pyrrolidine-2-carboxamide] | 8
COc1cc(NC(=O)C2NCCC2C(C)C)ccc1-c1cnco1 (single isomer, unassigned) [Example 38, 3-Isopropyl-N-(3-methoxy-4-(oxazol-5-yl)phenyl)pyrrolidine-2-carboxamide] | 110
COc1cc(NC(=O)C2NCCC2C(C)C)ccc1-c1cnco1 (single isomer, unassigned) [Example 39, 3-Isopropyl-N-(3-methoxy-4-(oxazol-5-yl)phenyl)pyrrolidine-2-carboxamide] | 29
COc1cc(NC(=O)C2NCCCC2C(C)C)ccc1-c1cnco1 (single isomer, unassigned) [Example 87, 3-Isopropyl-N-(3-methoxy-4-(oxazol-5-yl)phenyl)piperidine-2-carboxamide] | 280
COc1cc(NC(=O)C2NCCCC2C(F)(F)F)ccc1-c1cnco1 (single isomer, unassigned) [Example 91, N-(3-Methoxy-4-(oxazol-5-yl)phenyl)-3-(trifluoromethyl)piperidine-2-carboxamide] | 417
COc1cc(NC(=O)C2NCCCC2C(F)(F)F)ccc1-c1cnco1 (single isomer, unassigned) [Example 92, N-(3-Methoxy-4-(oxazol-5-yl)phenyl)-3-(trifluoromethyl)piperidine-2-carboxamide] | 74
COc1cc(NC(=O)[C@H](N)CC2CCC2)c(F)cc1-c1cnco1 (stereo in doubt) [Example 94, 2-Amino-3-cyclobutyl-N-(2-fluoro-5-methoxy-4-(oxazol-5-yl)phenyl)propanamide] | 750
COc1cc(NC(=O)[C@H](N)CC2CC2)c(F)cc1-c1cnco1 (stereo in doubt) [Example 95, 2-Amino-3-cyclopropyl-N-(2-fluoro-5-methoxy-4-(oxazol-5-yl)phenyl)propanamide] | 420
COc1cc(NC(=O)[C@H](N)CC(C)(C)C)c(F)cc1-c1cnco1 (stereo in doubt) [Example 97, 2-Amino-N-(2-fluoro-5-methoxy-4-(oxazol-5-yl)phenyl)-4,4-dimethylpentanamide] | 630
COc1cc(NC(=O)[C@H]2CCCN2)ccc1-c1cnco1 [Example 2, (R)—N-(3-Methoxy-4-(oxazol-5-yl)phenyl)pyrrolidine-2-carboxamide] | 346
COc1cc(NC(=O)[C@H](N)C2CCCC2)ccc1-c1cnco1 [Example 3, (R)-2-Amino-2-cyclopentyl-N-(3-methoxy-4-(oxazol-5-yl)phenyl)acetamide] | 53
CC(C)C[C@@H](N)C(=O)Nc1ccc(-c2cnco2)c(-c2ccsc2)c1 [Example 15, (R)-2-Amino-4-methyl-N-(4-(oxazol-5-yl)-3-(thiophen-3-yl)phenyl)pentanamide] | 1370
COc1cc(NC(=O)[C@H](N)CC(C)C)ccc1-c1ccncc1 [Example 20, (R)-2-Amino-N-(3-methoxy-4-(pyridin-4-yl)phenyl)-4-methylpentanamide] | 63
COc1cc(NC(=O)[C@H](N)CC(C)C)ccc1-c1ccnnc1 [Example 22, (R)-2-Amino-N-(3-methoxy-4-(pyridazin-4-yl)phenyl)-4-methylpentanamide] | 140
COc1cc(NC(=O)[C@H](N)CC(C)C)ccc1-c1nncs1 [Example 23, (R)-2-Amino-N-(3-methoxy-4-(1,3,4-thiadiazol-2-yl)phenyl)-4-methylpentanamide] | 5100
COc1cc(NC(=O)[C@H](N)CC(C)C)ccc1-n1ccnc1 [Example 25, (R)—N-(4-(1H-Imidazol-1-yl)-3-methoxyphenyl)-2-amino-4-methylpentanamide] | 3250
COc1cc(NC(=O)[C@H](N)CC(C)C)ccc1-n1cncn1 [Example 26, (R)-2-Amino-N-(3-methoxy-4-(1H-1,2,4-triazol-1-yl)phenyl)-4-methylpentanamide] | 955

The next lines start with the values.

IC50 [nM] | Compound
104 | COc1cc(NC(=O)[C@@H](N)CC(C)C)ccc1-c1cnco1 [Example 5, (S)-2-Amino-N-(3-methoxy-4-(oxazol-5-yl)phenyl)-4-methylpentanamide]
78 | COc1cc(NC(=O)[C@H](N)CC2CCC2)ccc1-c1cnco1 [Example 6, (R)-2-Amino-3-cyclobutyl-N-(3-methoxy-4-(oxazol-5-yl)phenyl)propanamide]
64 | COc1cc(NC(=O)C(N)CC(C)C)ccc1-c1cnco1 (stereo not drawn) [Example 7, 2-Amino-N-(3-methoxy-4-(oxazol-5-yl)phenyl)-4-methylpentanamide]
90 | COc1cc(NC(=O)C(N)CCC(C)C)ccc1-c1cnco1 (stereo not drawn) [Example 8, 2-Amino-N-(3-methoxy-4-(oxazol-5-yl)phenyl)-5-methylhexanamide]
115 | COc1cc(NC(=O)[C@H](N)CC2CC2)ccc1-c1cnco1 [Example 9, (R)-2-Amino-3-cyclopropyl-N-(3-methoxy-4-(oxazol-5-yl)phenyl)propanamide]
5010 | CCN(C(=O)[C@H](N)CC(C)C)c1ccc(-c2cnco2)c(OC)c1 [Example 10, (R)-2-Amino-N-ethyl-N-(3-methoxy-4-(oxazol-5-yl)phenyl)-4-methylpentanamide]
1520 | CC(C)C[C@@H](N)C(=O)Nc1ccc(-c2cnco2)c(C(F)(F)F)c1 [Example 11, (R)-2-Amino-4-methyl-N-(4-(oxazol-5-yl)-3-(trifluoromethyl)phenyl)pentanamide]
55 | CC(C)C[C@@H](N)C(=O)Nc1ccc(-c2cnco2)c(Br)c1 [Example 12, (R)-2-Amino-N-(3-bromo-4-(oxazol-5-yl)phenyl)-4-methylpentanamide]
248 | Cc1cc(NC(=O)[C@H](N)CC(C)C)ccc1-c1cnco1 [Example 13, (R)-2-Amino-4-methyl-N-(3-methyl-4-(oxazol-5-yl)phenyl)pentanamide]
97 | CCc1cc(NC(=O)[C@H](N)CC(C)C)ccc1-c1cnco1 [Example 14, (R)-2-Amino-N-(3-ethyl-4-(oxazol-5-yl)phenyl)-4-methylpentanamide]
100 | CC(C)C[C@@H](N)C(=O)Nc1ccc(-c2cnco2)c(O)c1 [Example 16, (R)-2-Amino-N-(3-hydroxy-4-(oxazol-5-yl)phenyl)-4-methylpentanamide]
66 | CCOc1cc(NC(=O)[C@H](N)CC(C)C)ccc1-c1cnco1 [Example 17, (R)-2-Amino-N-(3-ethoxy-4-(oxazol-5-yl)phenyl)-4-methylpentanamide]
56 | COc1cc(NC(=O)[C@H](N)CC(C)C)ccc1-c1cn[nH]n1 [Example 19, (R)-2-Amino-N-(3-methoxy-4-(2H-1,2,3-triazol-4-yl)phenyl)-4-methylpentanamide]
275 | COc1cc(NC(=O)[C@H](N)CC(C)C)ccc1-c1cncs1 [Example 21, (R)-2-Amino-N-(3-methoxy-4-(thiazol-5-yl)phenyl)-4-methylpentanamide]
19 | COc1cc(NC(=O)[C@H](N)CC(C)C)ccc1-c1cn[nH]c1 [Example 24, (R)-2-Amino-N-(3-methoxy-4-(1H-pyrazol-4-yl)phenyl)-4-methylpentanamide]
54 | COc1cc(NC(=O)[C@H](N)CC(C)C)c(Cl)cc1-c1cnco1 [Example 27, (R)-2-Amino-N-(2-chloro-5-methoxy-4-(oxazol-5-yl)phenyl)-4-methylpentanamide]
709 | COc1c(-c2cnco2)ccc(NC(=O)[C@H](N)CC(C)C)c1Cl [Example 28, (R)-2-Amino-N-(2-chloro-3-methoxy-4-(oxazol-5-yl)phenyl)-4-methylpentanamide]
344 | COc1c(-c2cnco2)cc(Cl)c(NC(=O)[C@H](N)CC(C)C)c1Cl [Example 29, (R)-2-Amino-N-(2,6-dichloro-3-methoxy-4-(oxazol-5-yl)phenyl)-4-methylpentanamide]
590 | COc1cc(NC(=O)C(CC(C)C)N2CCC(N)C2)ccc1-c1cnco1 (stereo not drawn) [Example 30, 2-(3-Aminopyrrolidin-1-yl)-N-(3-methoxy-4-(oxazol-5-yl)phenyl)-4-methylpentanamide]
